In patent publication US20230087950A1, “METHOD FOR SYNTHESIZING DOPA OLIGOPEPTIDE INTERMEDIATE AND USE, COMPOSITION AND PREPARATION THEREOF” (HAINAN UNIVERSITY, priority 2019, published 2023):
“Also recorded” adds a separate entry of the source. Where a SMILES comes first, the peptide text is derived from it. [ ]: non-standard residue; d: D form. The star is where a group is joined. Dopa = N[C@@H](Cc1ccc(O)c(O)c1)C(=O)O; Stearoyl = CCCCCCCCCCCCCCCCCC(=O)*; Palmitoyl = CCCCCCCCCCCCCCCC(=O)*; Myristoyl = CCCCCCCCCCCCCC(=O)*

Columns and labels:
[1] = Gelation tests of conjugates of fatty acid and L-DOPA in organic solvent/water; type: physicochemical; conditions: Table 3
Experimental: (§1) 1) Six samples of 40 mg FDD-16 was added into six 2 ml centrifuge tubes, followed by addition of 1 ml of respective organic solvents. Mother solutions were prepared using MeOH, ethanol, toluene, THF, DMSO, and DMF, respectively.
(§2) 2) Aliquots of 50 μl of the above mother solutions were added, respectively, to nine 2 ml centrifuge tubes, followed by addition of organic solvents (MeOH, ethanol, toluene, THF, DMSO, DMF, respectively). The volume ratios of the organic solvent to distilled water were 1:9, 2:8, 3:7, 4:6, 5:5, 6:4, 7:3, 8:2 and 9:1, respectively. Tests of each solvent ratio were repeated 3 times. Gel formation rates and the corresponding sample concentrations were marked down.
Tests were performed according to the tests done for FDD-16.

[2] = Gelation tests of L-DOPA-containing lipodipeptides in organic solvent/water; type: physicochemical; conditions: for Gel formation: organic solvents (MeOH, ethanol, toluene, THF, DMSO, DMF) with water; for Gel formation / Range of gelation concentrations: result in words
Experimental: as §1, §2
The experiments were performed like those of FDD-16.

[3] = Appearance and stability of gels by turning the tubes upside down; type: physicochemical; conditions: tubes turned upside down, standing for long time
From the text: The appearance and stability of gels formed from FDD-16 was studied by turning the tubes upside down and. […] This shed lights on future druggability study of FDD-16 using MeOH, ethanol, THF, DMSO and DMF as solvents. See FIG. 1 for gel formation experiments.

[4] = rat liver homogenate; cited from earlier work
[5] = in vivo; cited from earlier work

CCCCCCCCCCCCCCCCCC(=O)N[C@@H](Cc1ccc(O)c(O)c1)C(=O)O [FD-18]
Gelation concentration ([1]; Ethanol/water): 10~14 g/mL | Gelation concentration ([1]; MeOH/water): 10~15 g/mL

CCCCCCCCCCCCCC(=O)N[C@@H](Cc1ccc(O)c(O)c1)C(=O)N[C@@H](CC(=O)O)C(=O)O [FDD-14] (Myristoyl-[Dopa]-Asp-OH)
Gelation concentration ([2]; DMF/water, Table 2): 6~20 g/mL | Gelation concentration ([2]; DMSO/water, Table 2): 8~22 g/mL | Gelation concentration ([2]; Ethanol/water, Table 1): 8~20 g/mL | Gelation concentration ([2]; MeOH/water, Table 1): 8~22 g/mL | Gelation concentration ([2]; THF/water, Table 2): 6~8 g/mL | Gel formation [2]: could form stable gels; also recorded: formed gels in MeOH, ethanol, THF, DMSO and DMF; also recorded: higher possibilities to form gels; also recorded: can form stable gels | Range of gelation concentrations [2]: wide range of gelation concentrations

CCCCCCCCCCCCCCCC(=O)N[C@@H](Cc1ccc(O)c(O)c1)C(=O)N[C@@H](CC(=O)O)C(=O)O [FDD-16] (Palmitoyl-[Dopa]-Asp-OH)
Gelation concentration ([2]; DMF/water, Table 2): 6~22 g/mL | Gelation concentration ([2]; DMSO/water, Table 2): 6~28 g/mL | Gelation concentration ([2]; Ethanol/water, Table 1): 6~24 g/mL | Gelation concentration ([2]; MeOH/water, Table 1): 6~26 g/mL | Gelation concentration ([2]; THF/water, Table 2): 8~12 g/mL | Gel formation [2]: could form stable gels; also recorded: formed gels in MeOH, ethanol, THF, DMSO and DMF; also recorded: can form stable gels | Range of gelation concentrations [2]: wide range of gelation concentrations | Appearance and stability of gel [3]: in good condition and remained at the bottom while standing for long time

CCCCCCCCCCCCCCCCCC(=O)N[C@@H](Cc1ccc(O)c(O)c1)C(=O)N[C@@H](CC(=O)O)C(=O)O [FDD-18] (Stearoyl-[Dopa]-Asp-OH)
Gelation concentration ([2]; DMF/water, Table 2): 14~26 g/mL | Gelation concentration ([2]; DMSO/water, Table 2): 16~30 g/mL | Gelation concentration ([2]; Ethanol/water, Table 1): 12~26 g/mL | Gelation concentration ([2]; MeOH/water, Table 1): 10~16 g/mL | Gel formation [2]: could form stable gels; also recorded: formed gels in MeOH, ethanol, DMSO and DMF; also recorded: higher possibilities to form gels; also recorded: can form stable gels | Range of gelation concentrations [2]: narrower than those of FDD-16 and FDD-14

N[C@@H](Cc1ccc(O)c(O)c1)C(=O)N[C@@H](CC(=O)O)C(=O)O [H-DOPA-Asp-OH] (H-[Dopa]-Asp-OH)
half-life [4]: about 174 min

CSCC[C@H](NC(=O)[C@@H](N)Cc1ccc(O)c(O)c1)C(=O)O [H-DOPA-Met-OH] (H-[Dopa]-Met-OH)
half-life [4]: 16 min

N[C@@H](Cc1ccc(O)c(O)c1)C(=O)O [L-DOPA]
bioavailability [5]: 1-3% | time of effective blood drug concentration [5]: 50 min
